The text below walks through data of PubChem BioAssay (NCI).

What all share (experiment): NCI tumour cell line growth inhibition, 48 h
For test [1], the system named is SNB-19 CNS.
The test system of test [2] is UACC-62 melanoma.
Test [3] concerns SK-MEL-28 melanoma.
The test system of test [4] is DU-145 prostate.
In test [5] the test system is HL-60(TB) leukemia.
For test [6], the system named is SK-OV-3 ovarian.
Test [7] concerns EKVX NSCLC.
Test [8] relates to KM12 colon.
Test [9] concerns HS 578T breast.
Test [10] has as its system HCC-2998 colon.
Test [11] relates to CAKI-1 renal.
Test [12] concerns HOP-92 NSCLC.
Test [13] deals with A549 NSCLC.
Test [14] has as its system SF-539 CNS.
In test [15] the test system is OVCAR-8 ovarian.
In test [16] the test system is NCI-H460 lung.
The test system of test [17] is SK-MEL-5 melanoma.
In test [18] the test system is NCI-H522 lung.
In test [19] the test system is U251 CNS.

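How tested: cells in 96-well plates exposed to compound for 48 hours at five concentrations. TGI: total growth inhibition.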

As to `O=C1OCC2=C1C(c1ccc(Cl)cc1)c1cc3c(cc1O2)OCO3` (centres undefined), the TGI in [1] was more than 100 µM; in test [2], more than 100 µM; in [3], more than 100 µM; in [4], more than 100 µM; in [5], 12.8 µM; in test [6], more than 100 µM. The TGI was more than 100 µM in test [7]; more than 100 µM in test [8]; more than 72.2 µM in test [9]; more than 100 µM in test [10]; 10.8 µM in [11]; more than 100 µM in [12]. The TGI is more than 100 µM in test [13]; more than 25.1 µM in test [14]; more than 100 µM in test [15]; more than 100 µM in [16]; more than 100 µM in [17].

For the molecule `C=C1C(=O)O[C@H]2[C@@H]3O[C@@](C)(CC/C=C(\C)CCC[C@@H]2C)[C@H](O)C[C@@H]13`, the TGI in test [18] worked out at 5.67 µM; in [2] it was 20.9 µM; in [3] it was 38.8 µM; in [4], 27.2 µM; in test [5], 53 µM; in test [6], 32.5 µM. The TGI in test [7] was more than 100 µM; in test [8], 26.2 µM; in test [9] it was 25.9 µM; in [10], 31.6 µM; in [11], 4.53 µM; in test [12], more than 100 µM. The TGI was 24.9 µM in test [13]; 5.6 µM in test [14]; 17.1 µM in test [15]; more than 100 µM in test [19]; 6.36 µM in test [17].

As for `NCCCc1nonc1C(=O)O`, the TGI in test [1], in test [2], in [3], in test [4], in [5] and in test [6] was more than 100 µM throughout. Further, the TGI in test [7], in test [8], in test [9], in [10], in test [11] and in test [12] was more than 100 µM in each case. Also, the TGI in [13], in [14], in [15], in test [16], in test [19] and in test [17] was more than 100 µM each time.

Turning to `O=C1C/C(=C\c2ccccc2)C(=O)c2ccccc2N1`, the TGI in test [1] was determined as 30.7 µM; in test [18], 51.9 µM; in test [2], 40.5 µM; in [3], 55.8 µM; in [4], 59.4 µM; in test [5], 49.2 µM. The TGI is 68 µM in test [6]; 48.5 µM in test [7]; 39.5 µM in test [8]; more than 100 µM in test [9]; 37.9 µM in [10]; 33.1 µM in [11]. The TGI came out at 60.7 µM in test [12]; 56.9 µM in test [13]; 39.4 µM in test [14]; 39.1 µM in test [15]; 62 µM in [16]; 36.2 µM in test [17].

Regarding `Cn1c2ccccc2n2c3ccccc3c3nnc(N)c-3c12`, the TGI in test [1] is 25.5 µM; in test [18] it was 26.2 µM; in [2], more than 100 µM; in test [3], more than 100 µM; in test [4], more than 100 µM; in test [5] it was more than 100 µM. In addition, the TGI is more than 100 µM in test [6]; more than 100 µM in test [7]; more than 100 µM in [8]; 10.8 µM in test [9]; more than 100 µM in test [10]; more than 100 µM in test [11]. Moreover, the TGI in [12] is more than 100 µM; in [13], more than 100 µM; in [15], more than 100 µM; in test [16], more than 100 µM; in test [19], 11.7 µM; in [17], more than 100 µM.

Regarding `O=C(O)c1ccc2nc(-c3ccccn3)c(-c3ccccn3)nc2c1`, the TGI in [1], in test [2], in test [3], in test [4], in [5] and in test [6] was more than 100 µM throughout. Further, the TGI in [7], in [8], in [9], in test [10], in test [11] and in test [12] was more than 100 µM each time. Further, the TGI in test [14], in test [15], in test [16], in test [19] and in test [17] was more than 100 µM throughout.

Turning to `CC1=C(C(N)=O)C(c2ccncc2)C(C#N)C(=O)N1` (centres undefined), the TGI in test [1], in [2], in test [3], in test [4], in [5] and in [6] was more than 100 µM in each case. In addition, the TGI in [7], in [8], in test [9], in test [10], in test [11] and in [12] was more than 100 µM throughout. Moreover, the TGI in test [14], in test [16], in test [19] and in test [17] was more than 100 µM in each case.

On to `CCOC(=O)c1c2ccccc2n2c(=O)n(-c3ccccc3)nnc12`, for which the TGI in test [1] was more than 100 µM; in test [2], more than 100 µM; in test [3], more than 100 µM; in test [4] it was more than 100 µM; in test [5] it was more than 100 µM; in test [6], more than 85 µM. For the same molecule, the TGI in [7], in [8], in [9], in test [10], in test [11] and in test [12] was more than 100 µM in each case. The TGI in [13] was more than 100 µM; in test [14], more than 100 µM; in test [15] it was more than 100 µM; in test [16], more than 100 µM; in test [19] it was more than 100 µM; in test [17], 41.7 µM.
